Experimental data reported in ChEMBL document CHEMBL5338705, “Discovery of 1,3,4-oxadiazole derivatives containing a bisamide moiety as a novel class of potential cardioprotective agents” (Eur J Med Chem, 2022).
Calls of active or inactive are those of the source. No cut-off for these calls is given here.

Legend:
H9c2 [1] = assay: Cytoprotective activity against H2O2-induced oxidative damage in rat H9c2 cells assessed as cell viability at 20 uM preincubated for 24 hrs followed by H2O2 treatment for another 1.5 hrs by MTT assay (reference value: 32.52 to 44.40%); format: functional; settings: time 25.5 hrs, read-out: Activity
H9c2 [2] = assay: Cytoprotective activity against H2O2-induced oxidative damage in rat H9c2 cells assessed as fold reduction in cell viability at 20 uM preincubated for 24 hrs followed by H2O2 treatment for another 1.5 hrs by MTT assay; format: functional; settings: time 25.5 hrs
H9c2 [3] = assay: Downregulation of H2O2 induced BNP level in rat H9c2 cells measured after 1.5 hrs by qRT-PCR analysis; format: functional, cell-based; settings: dose <= 80.0 µM
H9c2 [4] = assay: Protection against H2O2-induced cell damage in rat H9c2 cells assessed as recovery of cell death at 100 uM; format: functional, cell-based
H9c2 [5] = assay: Protection against H2O2-induced cell damage in rat H9c2 cells assessed as recovery of cell shrinkage at 100 uM; format: functional, cell-based
H9c2 [6] = assay: Downregulation of H2O2 induced ANP level in rat H9c2 cells measured after 1.5 hrs by qRT-PCR analysis; format: functional, cell-based; settings: dose <= 80.0 µM
H9c2 [7] = assay: Cytoprotective activity against H2O2-induced oxidative damage in rat H9c2 cells assessed as reduction in cell viability at 100 uM incubated for 24 hrs followed by low concentration of H2O2 treatment and measured after 24 hrs by MTT assay relative to control; format: functional; settings: time 48 hrs
H9c2 [8] = assay: Antioxidant activity in H2O2-induced oxidative stress in rat H9c2 cells assessed as increase in expression of Nrf2 level at upto 80 uM measured after 1.5 hrs by Western blotting analysis; format: functional, cell-based
H9c2 [9] = assay: Antioxidant activity in H2O2-induced oxidative stress in rat H9c2 cells assessed as increase in expression of NQO1 level at upto 80 uM measured after 1.5 hrs by Western blotting analysis; format: functional, cell-based
H9c2 [10] = assay: Anti-apoptotic activity in H202 induced rat H9c2 cells assessed as increase in caspase 3 level at 20 to 80 uM measured after 1.5 hrs by Western blot analysis; format: functional, cell-based; settings: dose 20-80 µM
H9c2 [11] = assay: Cytotoxicity against rat H9c2 cells at 10 to 100 uM measured after 48 to 72 hrs by MTT assay; format: toxicity, cell-based; settings: h9c2, 100 µM, dose lower 10 µM, time lower 48 hrs, dose upper 100 µM, time upper 72 hrs
H9c2 [12] = assay: Anti-apoptotic activity in H202 induced rat H9c2 cells assessed as increase in Bax level at 20 to 80 uM measured after 1.5 hrs by Western blot analysis; format: functional, cell-based; settings: dose 20-80 µM
H9c2 [13] = assay: Cytoprotective activity against H2O2-induced oxidative damage in rat H9c2 cells assessed as cell viability preincubated for 24 hrs followed by H2O2 treatment for another 1.5 hrs by MTT assay; format: functional, cell-based; settings: dose 0-80 µM, time 25.5 hrs
H9c2 [14] = assay: Anti-apoptotic activity in H202 induced rat H9c2 cells assessed as increase in caspase 9 level at 20 to 80 uM measured after 1.5 hrs by Western blot analysis; format: functional, cell-based; settings: dose 20-80 µM
H9c2 [15] = assay: Anti-apoptotic activity in H202 induced rat H9c2 cells assessed as decrease in Bcl2 level at 20 to 80 uM measured after 1.5 hrs by Western blot analysis; format: functional, cell-based; settings: dose 20-80 µM
H9c2 [16] = assay: Antioxidant activity in H2O2-induced oxidative stress in rat H9c2 cells assessed as increase in expression of NQO1 level at 80 uM measured after 1.5 hrs by Western blotting analysis; format: functional, cell-based
H9c2 [17] = assay: Cytoprotective activity against H2O2-induced oxidative damage in rat H9c2 cells assessed as cell viability at 80 uM preincubated for 24 hrs followed by H2O2 treatment for another 1.5 hrs by MTT assay; format: functional, cell-based; settings: time 25.5 hrs
H9c2 [18] = assay: Anti-apoptotic activity in H202 induced rat H9c2 cells assessed as increase in Bax level at 80 uM measured after 1.5 hrs by Western blot analysis; format: functional, cell-based
H9c2 [19] = assay: Anti-apoptotic activity in H202 induced rat H9c2 cells assessed as increase in caspase 9 level at 80 uM measured after 1.5 hrs by Western blot analysis; format: functional, cell-based
H9c2 [20] = assay: Antioxidant activity in H2O2-induced oxidative stress in rat H9c2 cells assessed as increase in expression of Nrf2 level at 80 uM measured after 1.5 hrs by Western blotting analysis; format: functional, cell-based
H9c2 [21] = assay: Anti-apoptotic activity in H202 induced rat H9c2 cells assessed as increase in caspase 3 level at 80 uM measured after 1.5 hrs by Western blot analysis; format: functional, cell-based
H9c2 [22] = assay: Downregulation of H2O2 induced ANP level in rat H9c2 cells at 80 uM measured after 1.5 hrs by qRT-PCR analysis; format: functional, cell-based
H9c2 [23] = assay: Anti-apoptotic activity in H202 induced rat H9c2 cells assessed as decrease in Bcl2 level at 80 uM measured after 1.5 hrs by Western blot analysis; format: functional, cell-based
H9c2 [24] = assay: Downregulation of H2O2 induced BNP level in rat H9c2 cells at 80 uM measured after 1.5 hrs by qRT-PCR analysis; format: functional, cell-based

| SMILES | viability at 20 µM (H9c2 [1]) | fold change (FC) (H9c2 [2]) | further results |
| --- | --- | --- | --- |
| O=C(CSc1nnc(-c2ccc(O)cc2)o1)NC(=O)Nc1ccccn1 | 85.2% | 1.92 | – |
| O=C(CSc1nnc(-c2ccc(O)cc2)o1)Nc1ccccn1 | 55.3% | 1.54 | – |
| O=C(CSc1nnc(-c2ccc(O)cc2)o1)NC(=O)Nc1cccnc1 | 64.8% | 1.64 | – |
| O=C(CSc1nnc(-c2ccc(O)cc2)o1)NC(=O)NN1CCCCC1 | 29.2% | 0.74 | – |
| COc1ccc(NC(=O)NC(=O)Cn2cc(CSc3nnc(-c4ccccc4)o3)nn2)cc1 | 18.4% | 0.51 | – |
| COc1ccc(NC(=O)NC(=O)CSc2nnc(-c3ccccc3)o2)cc1 | 88.4% | 2.69 | Activity (H9c2 [3]): Dose-Dependent Effect; Activity (H9c2 [4]): Active; Activity (H9c2 [5]): Active; Activity (H9c2 [6]): Dose-Dependent Effect; Activity (H9c2 [7]): 48%; Activity (H9c2 [8]): Active; Activity (H9c2 [9]): Active; Activity (H9c2 [10]): Active; Activity (H9c2 [11]): Non-Toxic; Activity (H9c2 [12]): Active; Activity (H9c2 [13]): Dose-Dependent Effect; Activity (H9c2 [14]): Active; Activity (H9c2 [15]): Active |
| COc1ccc(NC(=O)NC(=O)CSc2nnc(-c3ccc(O)cc3)o2)cc1 | 60.5% | 1.68 | – |
| O=C(CSc1nnc(-c2ccc(O)cc2)o1)NC(=O)Nc1ccccc1 | 71.7% | 1.71 | – |
| O=C(CSc1nnc(-c2ccncc2)o1)NC(=O)Nc1ccccc1 | 48.5% | 1.16 | – |
| Cc1ccc(-c2nnc(SCC(=O)NC(=O)Nc3ccccn3)o2)cc1 | 70.9% | 1.6 | – |
| O=C(CSc1nnc(-c2ccccn2)o1)NC(=O)Nc1ccccn1 | 54% | 1.22 | – |
| O=C(CSc1nnc(-c2ccc(O)cc2)o1)NC(=O)Nc1ncccn1 | 59.1% | 1.49 | – |
| Cc1cccc(-c2nnc(SCC(=O)NC(=O)Nc3ccccn3)o2)c1 | 53.5% | 1.21 | – |
| COc1ccc(NC(=O)CSc2nnc(-c3ccccc3)o2)cc1 | 52.6% | 1.46 | – |
| COc1ccc(NC(=O)CSc2nnc(-c3ccc(O)cc3)o2)cc1 | 42.9% | 1 | – |
| COc1cccc(NC(=O)NC(=O)CSc2nnc(-c3ccccc3)o2)c1 | 22.6% | 0.69 | Activity (H9c2 [16]): inactive; Activity (H9c2 [4]): inactive; Activity (H9c2 [5]): inactive; Activity (H9c2 [17]): inactive; Activity (H9c2 [18]): inactive; Activity (H9c2 [19]): inactive; Activity (H9c2 [20]): inactive; Activity (H9c2 [21]): inactive; Activity (H9c2 [22]): inactive; Activity (H9c2 [23]): inactive; Activity (H9c2 [24]): inactive |
| O=C(CSc1nnc(-c2ccccc2)o1)NC(=O)Nc1ccccn1 | 72.5% | 1.79 | – |
| O=C(CSc1nnc(-c2ccccc2O)o1)NC(=O)Nc1ccccc1 | 60.7% | 1.45 | – |
| O=C(CSc1nnc(-c2ccccc2)o1)NC(=O)Nc1ccccc1 | 52.9% | 1.32 | – |
| CC(C)c1ccc(NC(=O)NC(=O)CSc2nnc(-c3ccccc3)o2)cc1 | 38.9% | 1.18 | – |
| O=C(CSc1nnc(-c2cccnc2)o1)NC(=O)Nc1ccccn1 | 40.5% | 0.91 | – |
| Cc1ccc(NC(=O)NC(=O)CSc2nnc(-c3ccccc3)o2)cc1 | 54.8% | 1.67 | – |
| Cc1cccc(-c2nnc(SCC(=O)NC(=O)Nc3ccccc3)o2)c1 | 46.7% | 1.11 | – |
| O=C(CSc1nnc(-c2ccccc2O)o1)NC(=O)Nc1ccccn1 | 65.7% | 1.48 | – |
| O=C(Cn1cc(CSc2nnc(-c3ccc(O)cc3)o2)nn1)NC(=O)Nc1ccccn1 | 18.7% | 0.52 | – |

| SMILES | viability at 20 µM (H9c2 [1]) | fold change (FC) (H9c2 [2]) | further results |
| --- | --- | --- | --- |
| O=C(CSc1nnc(-c2ccccc2)o1)NC(=O)Nc1ccc(Cl)cc1 | 37.6% | 1.14 | – |
| O=C(CSc1nnc(-c2ccccn2)o1)NC(=O)Nc1ccccc1 | 35.5% | 0.85 | – |
| O=C(CSc1nnc(-c2ccccc2)o1)NC(=O)Nc1ccccc1Cl | 34.5% | 1.05 | – |
| O=C(CSc1nnc(-c2cccnc2)o1)NC(=O)Nc1ccccc1 | 39.2% | 0.93 | – |
| O=C(CSc1nnc(-c2ccccc2Cl)o1)NC(=O)Nc1ccccn1 | 42.6% | 0.96 | – |
| O=C(CSc1nnc(-c2cccc(Cl)c2)o1)NC(=O)Nc1ccccc1 | 42.5% | 1.01 | – |
| Cc1ccccc1-c1nnc(SCC(=O)NC(=O)Nc2ccccc2)o1 | 56% | 1.34 | – |
| O=C(CSc1nnc(-c2ccccc2)o1)NC(=O)Nc1cccc(Cl)c1 | 34% | 1.03 | – |
| O=C(CSc1nnc(-c2ccccc2)o1)Nc1ccccc1 | 46.6% | 1.09 | – |
| COCCCNC(=O)NC(=O)CSc1nnc(-c2ccc(O)cc2)o1 | 69.5% | 1.76 | – |
| O=C(CSc1nnc(-c2ccc(O)cc2)o1)NC(=O)NN1CCOCC1 | 44.2% | 1.12 | – |
| O=C(CSc1nnc(-c2ccc(Cl)cc2)o1)NC(=O)Nc1ccccn1 | 54.9% | 1.24 | – |
| O=C(CSc1nnc(-c2ccncc2)o1)NC(=O)Nc1ccccn1 | 45.3% | 1.02 | – |
| O=C(CSc1nnc(-c2ccc(O)cc2)o1)NC(=O)Nc1nccs1 | 36.8% | 0.93 | – |
| O=C(CSc1nnc(-c2ccc(Cl)cc2)o1)NC(=O)Nc1ccccc1 | 51.5% | 1.23 | – |
| O=C(CSC(=S)N1CCNCC1)NC(=O)Nc1ccccc1 | 41.1% | 1.03 | – |
| COc1cc(NC(=O)NC(=O)CSc2nnc(-c3ccccc3)o2)cc(OC)c1OC | 43% | 1.3 | – |
| O=C(CSc1nnc(-c2ccccc2)o1)Nc1ccccn1 | 41.4% | 0.97 | – |
| O=C(CSc1nnc(-c2cccc(Cl)c2)o1)NC(=O)Nc1ccccn1 | 48.4% | 1.09 | – |
| Cc1ccccc1-c1nnc(SCC(=O)NC(=O)Nc2ccccn2)o1 | 66.5% | 1.5 | – |
| COc1ccccc1NC(=O)NC(=O)CSc1nnc(-c2ccccc2)o1 | 47% | 1.43 | – |
| O=C(CSc1nnc(-c2ccccc2Cl)o1)NC(=O)Nc1ccccc1 | 40.9% | 0.98 | – |
| COc1ccc(NC(=O)NC(=O)CSc2nnc(-c3ccccc3)[nH]2)cc1 | 64.4% | 1.69 | – |
| Cc1ccc(-c2nnc(SCC(=O)NC(=O)Nc3ccccc3)o2)cc1 | 57.7% | 1.38 | – |
